In patent publication US10357577B2, “Bacterial nitroreductase enzymes and methods relating thereto” (AUCKLAND UNISERVICES LIMITED, priority 2010, dated 2019):
“And” between values parts separate entries of the source, which are not always exact repeats. Equal entries are not always repeated. “Also recorded” adds a separate entry of the source.

Legend:
[1] = system: nitroreductase NfsA-expressing HCT116 'activator' cells; experiment: MCL (multicellular layer) bystander experiment, NfsA-dependent activation; assay type: cell-based, human; conditions: for bystander property (in words): MCL of NTR-expressing and parental HCT116 cells; for estimated bystander effect efficiency (BEE) / calculated bystander effect efficiency (BEE): hyperoxic (95% O2) MCLs; for estimated bystander effect efficiency (BEE): at concentrations achievable in α-MEM+10% FBS, activator fraction differs per experiment; for calculated bystander effect efficiency (BEE): HCT116-WT targets mixed with NfsA activators (activator fraction differs per experiment)
Protocol: Displacement of the Target cell survival curve to the left (T to Tc) is indicative of the presence of a cytotoxic metabolite(s) able to diffusible out of the sensitive activator (A) cell population. The prodrug concentrations for 10% survival (C10) of target cells (wild-type cells) grown without activators (T), targets in co-culture (TC) and activators (nfsA-expressing cells) in co-culture (AC) were determined by interpolation. BEE-Bystander effect efficiency calculates the drugs bystander effect: ((Log C10T−Log C10TC)/(Log C10T−Log C10AC)).
The prodrug concentrations for 10% survival (C10) of target cells (wild-type cells) grown without activators (T), and targets in co-culture (TC) and activators (NTR-expressing cells) in co-culture (AC) can be determined. The bystander effect of a test prodrug is measured by the bystander effect efficiency which can be calculated using the algorithm ((Log C10T−Log C10TC)/(Log C10T−Log C10AC)).
Millicell-CM membrane inserts (Millipore) were coated in calf-skin collagen type III (Sigma-Aldrich) to facilitate cell attachment. […] After exposure, inserts were disaggregated (0.07% trypsin, 10 min, 37° C., followed by 100 μg/ml DNAase I (Sigma-Aldrich). Cells were counted, resuspended and plated in P60 dishes to determine clonogenic survival. To discriminate clonogenic activator (NTR+) from target (NTR−) colonies cells were plated in non-selective medium (total cells) and medium containing 1 μM puromycin (activator cells). Colonies were grown in a 37° C. 5% CO2 incubator for 10 days before staining with methylene blue (2 g/liter in 50% v/v aqueous ethanol). Colonies containing >50 cells were counted as clonogenic survivors. Surviving fractions for each population was calculated as the plating efficiency for drug-treated MCLs/untreated controls. The drug concentrations for 10% survival (C10) of target cells grown without activators (T), targets in co-culture (Tc) and activators in co-culture (Ac) was determined by interpolation.

[2] = system: HCT116 cells expressing E. coli NfsB; experiment: Monolayer antiproliferative (IC50) assay, NTR-expressing HCT116; assay type: cell-based, human; conditions: low cell density proliferation assay
Protocol: (§1) FIGS. 10 (B) and 10 (C) illustrates the results of evaluation of 2-nitroimidazole clinical imaging candidates with E. coli and non-E. coli NTRs. Stably-expressing cells were treated with varying concentration of 2-nitroimidazole prodrugs diluted in αMEM+5% FCS+P/S. Cells were exposed to prodrug for 18 hrs, washed and left to regrow for 5 days. IC50 was determined as the concentration of prodrug required to inhibit cell growth by 50% of untreated controls. IC50 values are mean for ≥2 independent experiments. WT:NTR ratio-ratio of IC50 means from WT cells versus NTR-expressing cell lines.
as §1, with “FIG. 21” for “FIGS. 10 (B) and 10 (C)”, “antiproliferative activity (IC50 value)” for “the results”, “prodrug” for “evaluation of 2-nitroimidazole clinical imaging”, “nitroreductases.” for “NTRs.”, “prodrug” for “2-nitroimidazole prodrugs”, “ratio-interexperimental ratio” for “ratio-ratio”
(§2) Isolated NTR gene sequences were subject to PCR and introduced in the bicistronic plasmid F579 via Gateway cloning (Invitrogen) as described by Prosser et al. (2010, Biochem Pharmacol, 79, 678-687). Stably transfected cell lines were created by transfection of the relevant plasmid using FuGENE 6 Transfection Reagent (Roche). Transfected cell populations were maintained by passage in puromycin
(§3) Cells were passaged in alpha-Minimal Essential Media, (αMEM; Gibco) supplemented with 5% FBS, (GIBCO NZ) without antibiotics. Cell were passaged for <3 months from frozen stocks and confirmed Mycoplasma free (PCR-ELISA; Roche Diagnostics). Cells were aliquoted into the 96-well plate (100 μL/well) and cells were left to attach (≥4 hrs). […] Plates were read on an ELx 808 Absorbance Microplate Reader (Bio-Tek Instruments). Absorbance was measured at 490 nm and 450 nm (final absorbance 490-450). […]

[3] = system: HCT116 cells expressing E. coli NfsA; assay type: cell-based, human; conditions: low cell density proliferation assay
Protocol: as §1
as §1, with “FIG. 21” for “FIGS. 10 (B) and 10 (C)”, “antiproliferative activity (IC50 value)” for “the results”, “prodrug” for “evaluation of 2-nitroimidazole clinical imaging”, “nitroreductases.” for “NTRs.”, “prodrug” for “2-nitroimidazole prodrugs”, “ratio-interexperimental ratio” for “ratio-ratio”
as §2, §3

[4] = target: T1, NfsB(Ec) (Escherichia coli, UniProt P38489); experiment: Growth Inhibition assay, NTR over-expressing E. coli SOS-R2; assay type: cell-based; conditions: elevated substrate concentrations (400 μM F-MISO, 600 μM HX4)
T1 construct: expressed in transfected cells; host or cells: E. coli SOS-R2 (endogenous nfsA, nfsB, nemA and azoR deleted) carrying pUCX::ntr
T1 sequence (P38489 whole entry): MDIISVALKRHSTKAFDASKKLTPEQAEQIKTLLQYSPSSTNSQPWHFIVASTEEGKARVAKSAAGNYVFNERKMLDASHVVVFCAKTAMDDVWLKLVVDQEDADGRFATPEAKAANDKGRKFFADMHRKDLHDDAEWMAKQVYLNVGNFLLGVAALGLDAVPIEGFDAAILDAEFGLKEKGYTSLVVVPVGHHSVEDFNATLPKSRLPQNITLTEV
Protocol: FIG. 34 (B) illustrates the metabolism of F-MISO by members of the 58 NTR over-expression library as measured by Growth Inhibition assay as described for FIG. 34A except that cells were challenged with 400 μM F-MISO.
FIG. 35 (B) illustrates the metabolism of HX4 by members of the 58 NTR over-expression library as measured by Growth Inhibition assay as described for FIG. 35A except that cells were challenged with 600 μM HX4.
Individual microtiter plate wells containing 200 μl LB+amp, 0.4% glucose were inoculated with SOS-R2 pUCX::ntr strains and incubated overnight at 30° C., 200 rpm. Ten μl of the overnight culture were used to inoculate 190 μl of fresh assay media (LB+amp, 0.05 mM IPTG, 0.2% glucose) and incubated at 30° C., 200 rpm for 3 h. The 200 μl culture was split into 100 μl duplicates which were supplemented with either 100 μl challenge media (assay media+250 uM EF5+2% DMSO) or 100 μl control media (assay media+2% DMSO). Initial OD600 readings were recorded and then plates incubated at 30° C., 200 rpm for 4 h after which final OD600 readings were taken and used to calculate strains respective growth inhibition in EF5 presence.

[5] = system: HCT116-WT (parental) 'target' cells; experiment: MCL (multicellular layer) bystander experiment, target cells; assay type: cell-based, human
Description: FIG. 22 illustrates NfsA-dependent activation of TH-302 in an MCL bystander experiment. It includes a representative bystander efficiency graph. TH-302 dose-response curves for hyperoxic (95% O2) multicellular layers (MCLs) of HCT116-WT (parental) ‘target’ cells in the absence (T) and presence (Tc) of nitroreductase NfsA-expressing HCT116 ‘activator’ cells (A). MCLs are composed of ‘targets only’ (T) or as intimate mixtures of 29% (±4%) NfsA activators (A) and 71% targets (Tc). Displacement of the Target cell survival curve to the left (T to Tc) is indicative of the presence of a cytotoxic metabolite(s) able to diffusible out of the sensitive activator (A) cell population. The prodrug concentrations for 10% survival (C10) of target cells (wild-type cells) grown without activators (T), targets in co-culture (TC) and activators (nfsA-expressing cells) in co-culture (AC) were determined by interpolation. BEE-Bystander effect efficiency calculates the drugs bystander effect: ((Log C10T−Log C10TC)/(Log C10T−Log C10AC)). The calculated bystander effect efficiency is 43.4%.
Bystander effects can be quantified according to methods described in Wilson et al, 2002, Cancer Res. 62:1425-1432, by employing a 3D multicellular layer (MCL) composed of a minority (1%) of NTR-expressing ‘activator’ cells, mixed with a majority (99%) of parental (wild-type) ‘target’ cells. The prodrug concentrations for 10% survival (C10) of target cells (wild-type cells) grown without activators (T), and targets in co-culture (TC) and activators (NTR-expressing cells) in co-culture (AC) can be determined. The bystander effect of a test prodrug is measured by the bystander effect efficiency which can be calculated using the algorithm ((Log C10T−Log C10TC)/(Log C10T−Log C10AC)). […]
Millicell-CM membrane inserts (Millipore) were coated in calf-skin collagen type III (Sigma-Aldrich) to facilitate cell attachment. […] Surviving fractions for each population was calculated as the plating efficiency for drug-treated MCLs/untreated controls. […]

`O=C(Cn1ccnc1[N+](=O)[O-])NCCO` [Etanidazole, N-(2-hydroxyethyl)-2-(2-nitro-1H-imidazol-1-yl)acetamide] was tested, and the “bystander property (in words)” value [1] was “zero bystander property” and the “estimated bystander effect efficiency (BEE)” value [1] was 0%.
With `CCS(=O)(=O)CCn1c([N+](=O)[O-])cnc1C` [Tinidazole, 1-(2-(ethylsulfonyl)ethyl)-2-methyl-5-nitro-1H-imidazole] the “bystander property (in words)” value [1] was “lack any measurable bystander effect; also recorded: zero bystander property” and the “estimated bystander effect efficiency (BEE)” value [1] was 0%.
`O=[N+]([O-])c1nccn1CC(O)CNCCBr` (stereo not shown) [RB6145] was tested, and the “bystander property (in words)” value [1] was “lack any measurable bystander effect”.
`CN(CCO)C(=O)c1cc([N+](=O)[O-])cc([N+](=O)[O-])c1N(CCBr)CCBr` [SN31609, 2-(bis(2-bromoethyl)amino)-N-(2-hydroxyethyl)-N-methyl-3,5-dinitrobenzamide] was tested, and the “prodrug activation (in words)” value [2] was “significant activation” and the “prodrug activation (in words)” value [3] was “significant activation”.
With `O=C1CN(/N=C/c2ccc([N+](=O)[O-])o2)C(=O)N1` [Nitrofurantoin, (E)-1-(((5-nitrofuran-2-yl)methylene)amino)imidazolidine-2,4-dione] the “bystander property (in words)” value [1] was “zero bystander property” and the “calculated bystander effect efficiency (BEE)” value [1] was 0%.
With `O=[N+]([O-])c1nccn1Cc1cn(C(CO)CF)nn1` (stereo not shown) [HX4, 3-fluoro-2-(4-((2-nitro-1H-imidazol-1-yl)methyl)-1H-1,2,3-triazol-1-yl)propan-1-ol] the “activity with 2-NI substrate (in words)” value [4] was “substantial activity”.
For `CS(=O)(=O)OCCN(CCBr)c1c(C(=O)NCCO)cc([N+](=O)[O-])cc1[N+](=O)[O-]` [PR-104A, 2-((2-bromoethyl)(2-((2-hydroxyethyl)carbamoyl)-4,6-dinitrophenyl)amino)ethyl methanesulfonate], the “prodrug activation (in words)” value [2] was “significant activation”, the “bystander property (in words)” value [1] was “marked bystander property” and the “estimated bystander effect efficiency (BEE)” value [1] was 89%. For the same compound, the “prodrug activation (in words)” value [3] was “significant activation”.
For `COCC(O)Cn1ccnc1[N+](=O)[O-]` (stereo not shown) [Misonidazole, 1-methoxy-3-(2-nitro-1H-imidazol-1-yl)propan-2-ol], the “bystander property (in words)” value [1] was “zero bystander property” and the “estimated bystander effect efficiency (BEE)” value [1] was 0%.
For `O=[N+]([O-])c1nccn1CC(O)CN1CC1` (stereo not shown) [RSU-1069, 1-(aziridin-1-yl)-3-(2-nitro-1H-imidazol-1-yl)propan-2-ol], the “bystander property (in words)” value [1] was “lack any measurable bystander effect”.
With `Cn1c(COP(=O)(NCCBr)NCCBr)cnc1[N+](=O)[O-]` [TH-302, N,N′-bis(2-bromoethyl)-(1-methyl-2-nitro-1H-imidazol-5-yl)methyl phosphorodiamidic acid ester] the “calculated bystander effect efficiency (BEE)” value [1] was 43.4% and 43%, the “sterilisation of the nfsA-expressing cells in the MCL model” value ([1]; incubation with 90 nM TH-302) was “Greater than 90%” and the “fold less sensitive, NfsA negative cells versus nfsA-expressing cells” value ([5]; MCL model) was 210 fold. For the same compound, the “C10 (concentration for 10% survival) of NfsA negative cells in co-culture” value ([5]; MCL, targets in co-culture with activators) was 1.86 µM and the “C10 (concentration for 10% survival) of NfsA negative cells” value ([5]; MCL, targets without activators) was 18.9 µM.
